Laboratory results taken from ChEMBL document CHEMBL4406865, “Design, synthesis and biological evaluation of novel semicarbazone-selenochroman-4-ones hybrids as potent antifungal agents” (2019).
Values after ≈ are worked out from the molar mass of the structure shown.

What was measured:
Format in all cases: functional
Candida albicans [1] = assay: Antifungal activity against fluconazole-resistant Candida albicans isolate 17 incubated for 24 hrs by CLSI protocol based microbroth dilution method; details: isolate 17, 24 h
Aspergillus fumigatus = assay: Antifungal activity against Aspergillus fumigatus CGMCC 3.7795 measured at 72 hrs by CLSI protocol based microbroth dilution method; details: CGMCC 3.7795, 72 h
Candida albicans [2] = assay: Antifungal activity against Candida albicans SC5314 incubated for 24 hrs by CLSI protocol based microbroth dilution method; details: SC5314, 24 h
Candida albicans [3] = assay: Antifungal activity against Candida albicans CPCC400616 measured at 24 hrs by CLSI protocol based microbroth dilution method; details: CPCC400616, 24 h
[Candida] zeylanoides = Antifungal activity against Candida zeylanoides CGMCC2.3739 measured at 24 hrs by CLSI protocol based microbroth dilution method; details: Dujonia zeylanoides, CGMCC2.3739, 24 h
Candida albicans [4] = assay: Antifungal activity against fluconazole-resistant Candida albicans isolate 100 incubated for 24 hrs by CLSI protocol based microbroth dilution method; details: isolate 100, 24 h
Candida albicans [5] = assay: Antifungal activity against fluconazole-resistant Candida albicans isolate 103 incubated for 24 hrs by CLSI protocol based microbroth dilution method; details: isolate 103, 24 h
Candida albicans [6] = assay: Antifungal activity against fluconazole-resistant Candida albicans CaR incubated for 24 hrs by CLSI protocol based microbroth dilution method
Cryptococcus neoformans = assay: Antifungal activity against Cryptococcus neoformans CGMCC2.3161 measured at 72 hrs by CLSI protocol based microbroth dilution method; details: CGMCC2.3161, 72 h

Row | SMILES | MIC90 (Candida albicans [1]) | MIC90 (Aspergillus fumigatus) | MIC90 (Candida albicans [2]) | MIC90 (Candida albicans [3]) | MIC90 ([Candida] zeylanoides) | MIC90 (Candida albicans [4]) | MIC90 (Candida albicans [5]) | MIC90 (Candida albicans [6]) | MIC90 (Cryptococcus neoformans)
1 | NNC(=S)N/N=C1\CC[Se]c2ccc(F)cc21 | 8 µg/mL (≈ 25.2 µM) | > 128 µg/mL | 4 µg/mL (≈ 12.6 µM) | 2 µg/mL (≈ 6.3 µM) | 64 µg/mL (≈ 202 µM) | 4 µg/mL (≈ 12.6 µM) | 2 µg/mL (≈ 6.3 µM) | 8 µg/mL (≈ 25.2 µM) | 4 µg/mL (≈ 12.6 µM)
2 | Cc1ccc2c(c1)C(=O)CC[Se]2 |  | > 128 µg/mL | 4 µg/mL (≈ 17.8 µM) | 32 µg/mL (≈ 142 µM) | > 128 µg/mL |  |  |  | > 128 µg/mL
3 | CCc1ccccc1NC(=O)N/N=C1\CC[Se]c2ccc(F)cc21 |  | > 128 µg/mL | 8 µg/mL (≈ 20.5 µM) | 8 µg/mL (≈ 20.5 µM) | > 128 µg/mL |  |  |  | > 128 µg/mL
4 | Fc1ccc2c(c1)/C(=N/NC(=S)Nc1ccccc1)CC[Se]2 | 2 µg/mL (≈ 5.29 µM) | > 128 µg/mL | 2 µg/mL (≈ 5.29 µM) | 0.25 µg/mL (≈ 0.661 µM) | 8 µg/mL (≈ 21.1 µM) | 0.5 µg/mL (≈ 1.32 µM) | 0.5 µg/mL (≈ 1.32 µM) | 2 µg/mL (≈ 5.29 µM) | 2 µg/mL (≈ 5.29 µM)
5 | S=C(N/N=C1\CC[Se]c2ccccc21)Nc1ccccc1 | 4 µg/mL (≈ 11.1 µM) | > 128 µg/mL | 4 µg/mL (≈ 11.1 µM) | 0.5 µg/mL (≈ 1.39 µM) | 1 µg/mL (≈ 2.78 µM) | 32 µg/mL (≈ 88.8 µM) | > 128 µg/mL | 64 µg/mL (≈ 178 µM) | 8 µg/mL (≈ 22.2 µM)
6 | Cc1ccc(C)c(NC(=S)N/N=C2\CC[Se]c3ccccc32)c1 |  | > 128 µg/mL | 8 µg/mL (≈ 20.6 µM) | 16 µg/mL (≈ 41.2 µM) | 128 µg/mL (≈ 330 µM) |  |  |  | 16 µg/mL (≈ 41.2 µM)
7 | Cc1ccc2c(c1)/C(=N/NC(=O)Nc1ccccc1)CC[Se]2 |  | > 128 µg/mL | 4 µg/mL (≈ 11.2 µM) | 64 µg/mL (≈ 179 µM) | 16 µg/mL (≈ 44.7 µM) |  |  |  | 8 µg/mL (≈ 22.3 µM)
8 | Cc1ccc(NC(=S)N/N=C2\CC[Se]c3ccccc32)cc1 |  | > 128 µg/mL | 64 µg/mL (≈ 171 µM) | 8 µg/mL (≈ 21.4 µM) | 128 µg/mL (≈ 342 µM) |  |  |  | 8 µg/mL (≈ 21.4 µM)
9 | CCc1ccccc1NC(=O)N/N=C1\CC[Se]c2ccccc21 |  | > 128 µg/mL | > 128 µg/mL | > 128 µg/mL | > 128 µg/mL |  |  |  | > 128 µg/mL
10 | O=C(N/N=C1\CC[Se]c2ccc(F)cc21)Nc1cccc(Br)c1 |  | > 128 µg/mL | 64 µg/mL (≈ 145 µM) | 16 µg/mL (≈ 36.3 µM) | > 128 µg/mL |  |  |  | 16 µg/mL (≈ 36.3 µM)
11 | Cc1ccc2c(c1)/C(=N/NC(=O)Nc1ccccc1Cl)CC[Se]2 |  | > 128 µg/mL | 32 µg/mL (≈ 81.5 µM) | 64 µg/mL (≈ 163 µM) | > 128 µg/mL |  |  |  | 64 µg/mL (≈ 163 µM)
12 | Cc1ccc(NC(=S)N/N=C2\CC[Se]c3ccc(C)cc32)cc1 |  | > 128 µg/mL | 16 µg/mL (≈ 41.2 µM) | 64 µg/mL (≈ 165 µM) | 8 µg/mL (≈ 20.6 µM) |  |  |  | 32 µg/mL (≈ 82.4 µM)
13 | NNC(=S)N/N=C1\CC[Se]c2ccccc21 | 64 µg/mL (≈ 214 µM) | > 128 µg/mL | 16 µg/mL (≈ 53.5 µM) | 8 µg/mL (≈ 26.7 µM) | 1 µg/mL (≈ 3.34 µM) | > 128 µg/mL | > 128 µg/mL | > 128 µg/mL | 0.5 µg/mL (≈ 1.67 µM)
14 | Cc1ccc(C)c(NC(=S)N/N=C2\CC[Se]c3ccc(C)cc32)c1 |  | > 128 µg/mL | 2 µg/mL (≈ 4.97 µM) | 2 µg/mL (≈ 4.97 µM) | 128 µg/mL (≈ 318 µM) |  |  |  | 16 µg/mL (≈ 39.8 µM)
15 | CCOc1ccc(NC(=O)N/N=C2\CC[Se]c3ccc(F)cc32)cc1 |  | > 128 µg/mL | 4 µg/mL (≈ 9.84 µM) | 8 µg/mL (≈ 19.7 µM) | 16 µg/mL (≈ 39.4 µM) |  |  |  | 32 µg/mL (≈ 78.8 µM)
16 | COc1ccc(OC)c(NC(=S)N/N=C2\CC[Se]c3ccc(C)cc32)c1 |  | > 128 µg/mL | 32 µg/mL (≈ 73.7 µM) | 64 µg/mL (≈ 147 µM) | 128 µg/mL (≈ 295 µM) |  |  |  | 32 µg/mL (≈ 73.7 µM)
17 | Cc1ccc2c(c1)/C(=N/NC(=O)Nc1cc(Cl)cc(Cl)c1)CC[Se]2 |  | > 128 µg/mL | > 128 µg/mL | > 128 µg/mL | > 128 µg/mL |  |  |  | > 128 µg/mL
18 | COc1cccc(NC(=S)N/N=C2\CC[Se]c3ccccc32)c1 |  | > 128 µg/mL | 16 µg/mL (≈ 41 µM) | 16 µg/mL (≈ 41 µM) | 2 µg/mL (≈ 5.12 µM) |  |  |  | 4 µg/mL (≈ 10.2 µM)
19 | COc1cccc(NC(=S)N/N=C2\CC[Se]c3ccc(F)cc32)c1 |  | > 128 µg/mL | 16 µg/mL (≈ 39.2 µM) | 8 µg/mL (≈ 19.6 µM) | 2 µg/mL (≈ 4.9 µM) |  |  |  | 1 µg/mL (≈ 2.45 µM)
20 | OC(Cn1cncn1)(Cn1cncn1)c1ccc(F)cc1F [FLUCONAZOLE] | 128 µg/mL (≈ 418 µM) | > 128 µg/mL | 1 µg/mL (≈ 3.27 µM) | 2 µg/mL (≈ 6.53 µM) | 2 µg/mL (≈ 6.53 µM) | 128 µg/mL (≈ 418 µM) | > 128 µg/mL | > 128 µg/mL | 1 µg/mL (≈ 3.27 µM)
